{"source": "patent US20190262363A1", "about": "“ANTAGONIST OF MINERALOCORTICOID RECEPTOR FOR THE TREATMENT OF OSTEOARTHRITIS” (INSERM (INSTITUT NATIONAL DE LA SANTÉ ET DE LA RECHERCHE …, priority 2016, published 2019)", "tested_on": "knee joints of SHHF^cp/cp rats (metabolic syndrome associated osteoarthritis model) and lean SHHF^+/+ rats", "assay": "Chronic eplerenone treatment in lean SHHF+/+ and MetS SHHFcp/cp rats; knee joint histology and OARSI scoring", "assay_type": "in vivo, rat", "source_text": "In this study were used lean SHHF^+/+ (spontaneously hypertensive heart failure) rats as controls and obese SHHF^cp/cp rats, which have been characterized as a good model for metabolic syndrome (MetS). […] The absence of eple means that the considered rats are part of a control placebo group.\nAnimals of both lean SHHF^+/+ and MetS SHHF^cp/cp genotypes were divided randomly into two groups. Group I (n=4 for SHHF^+/+ and n=4 for SHHF^cp/cp) was given placebo and group II (n=4 for SHHF^+/+ and n=9 for SHHF^cp/cp) was given 100 mg.kg-1.day-1 of the selective MRA eplerenone (pure active molecule provided by Pfizer) in drinking water from 1.5 months to 12.5 months of age. The knee joints of 1.5- and 12.5- month-old specimens of each group (untreated SHHF^+/+ and SHHF^cp/cp and their treated counterparts) were fixed in 4% paraformaldehyde, decalcified in EDTA-phosphate buffered solution and then embedded in paraffin. […] thick adjacent sections were stained with Toluidine Blue, Hematoxylin and Eosin or submitted to collagen II immunohistochemistry in order to investigate cartilage destruction, osteophyte formation and lesions of the synovial tissue, respectively. The corresponding scores following OARSI guidelines were done blindly by independent researchers.", "note": "Entries after “also recorded” stand apart in the source; their conditions may differ."}
{"smiles": "COC(=O)[C@@H]1CC2=CC(=O)CC[C@]2(C)[C@@]23O[C@@H]2C[C@@]2(C)[C@@H](CC[C@@]24CCC(=O)O4)[C@H]13", "note": "[eplerenone, Pregn-4-ene-7,21-dicarboxylic acid, 9,11-epoxy-17-hydroxy-3-oxo-,y-lactone, methyl ester, (7α,11α,17β)]", "values": [{"measurement": "Cartilage histology (toluidine blue): fibrillations and loss of proteoglycans", "setting": "12.5SHHF^cp/cp Eple knee joints vs untreated 12.5SHHF^cp/cp, FIG. 1D vs. 1C", "value": "markedly reduced fibrillations and loss of proteoglycans"}, {"measurement": "Osteophytes, collagen II immunostaining", "setting": "12.5SHHF^cp/cp Eple knee joints vs untreated 12.5SHHF^cp/cp, FIG. 2D vs. 2C", "value": "alleviated osteophytes"}, {"measurement": "Synovial tissue histology (Hematoxylin & Eosin): inflammation and fibrosis", "setting": "12.5SHHF^cp/cp Eple knee joints vs untreated 12.5SHHF^cp/cp, FIG. 3D vs. 3C", "value": "attenuated inflammation and fibrosis of the synovial tissue"}, {"measurement": "OARSI scoring of the joint cartilage degradation (cartilage alterations)", "setting": "12.5SHHF^cp/cp Eple rats vs placebo 12.5SHHF^cp/cp, 100 mg.kg-1.day-1 in drinking water from 1.5 to 12.5 months of age, FIG. 1E", "value": "prevents the degradation of joint cartilage; also recorded: drastically decreases the cartilage alterations"}, {"measurement": "OARSI scoring of osteophyte (osteophyte formation)", "setting": "12.5SHHF^cp/cp Eple rats vs placebo 12.5SHHF^cp/cp, 100 mg.kg-1.day-1 in drinking water from 1.5 to 12.5 months of age, FIG. 2E", "value": "reduces osteophyte formation; also recorded: significantly hampers osteophyte formation"}, {"measurement": "OARSI scoring of the joint inflammation (synovial inflammatory and fibrotic events)", "setting": "12.5SHHF^cp/cp Eple rats vs placebo 12.5SHHF^cp/cp, 100 mg.kg-1.day-1 in drinking water from 1.5 to 12.5 months of age, FIG. 3E", "value": "reduces the joint inflammation; also recorded: markedly reduces the level of inflammatory and fibrotic events"}, {"measurement": "Knee joint phenotype", "setting": "MetS 12.5SHHF^cp/cp Eple rats treated from 1.5 months onward, compared to placebo 12.5SHHF^cp/cp", "value": "phenotypes very similar to those of their ^12.5SHHF^+/+ counterparts"}, {"measurement": "Knee joint phenotype", "setting": "lean 12.5SHHF^+/+ eple rats, 100 mg.kg-1.day-1 in drinking water from 1.5 to 12.5 months of age", "value": "displayed normal phenotype"}]}
